Reference: publication PMC7413516, “Antidepressant-like activity and safety profile evaluation of 1H-imidazo[2,1-f]purine-2,4(3H,8H)-dione derivatives as 5-HT1A receptor partial agonists” (PLoS ONE, 2020)
Like-named read-outs stand apart in the source and are kept apart here.

Test: Pharmacokinetic study in mice, plasma and brain structures, LC/MS/MS
Type: in vivo, Swiss albino mice
Conditions: Swiss albino, mouse, ip, 1.25 mg/kg i.p.
Procedure: Blood samples from the Swiss albino mice were collected at 0 (pre-dose), 5, 15, 30, 60, 120, 240 and 480 min after a compound administration. The blood samples and brain structures were collected under general anesthesia induced by i.p. injection of 50 mg/kg ketamine plus 8 mg/kg xylazine. The blood samples were taken into heparinized tubes, immediately centrifuged at 1000 × g for 10 min, and plasma was collected. The plasma samples and brain structures were immediately frozen at -30°C and -80°C, respectively.
The plasma and tissue sample pretreatment procedure involved acetonitrile precipitation. A 5 μL aliquot of the IS working solution (100 ng/mL) was added to 50 μL of the collected mouse plasma sample, which was then vortex-mixed for 10 seconds. Thereafter, 200 μL of acetonitrile was added, vortexed during 20 min, and then centrifuged (1000 × g, 10 min). The supernatant (100 μL) was then transferred to insert placed in an autosampler vial, and a 10 μL volume of this was injected onto the HPLC column. Tissue samples were thawed before use, and whole hippocampus, striatum and frontal cortex were weighted and placed in a glass mortar and pestle tissue grinder and homogenized with an appropriate amount of phosphate buffer (pH 7.4) in 1:5 ratio. Afterward, 50 μL of tissue homogenates were transferred to new Eppendorf tubes and spiked with 5 μL of the internal standard working solution. All samples were stored on ice during the preparation process. This was followed by procedures like those described above.
The LC/ESI-MS/MS experiments were performed on an Applied Biosystems/MDS Sciex (Concord, Ontario, Canada) API 2000 triple quadrupole mass spectrometer equipped with an electrospray (ESI) ionization interface. This instrument was coupled to an Agilent 1100 (Agilent Technologies, Waldbronn, Germany) LC system. Data acquisition and processing were accomplished using Sciex Analyst 1.4.2 data collection and integration software.
An XBridge C18 (2.1 x 30 mm, 3.5 μm) analytical column (Waters, Milford, Massachusetts, USA) was used for compound separation. The temperatures of the column thermostat and the autosampler were set at 25°C and 10°C, respectively. The mobile phase consisted of a mixture of acetonitrile with addition of 0.1% formic acid (solvent A) and water with addition of 0.1% formic acid (solvent B) and was set at a flow rate of 0.6 mL/min. Starting amount of solvent A is 10%, isocratic elution from 0 to 3 min, and then gradient up to 90% of solvent A, and maintained to 10 min, and then gradient down to 10% of solvent A, and maintained to 15 min.
The ion source parameters were as follows: ion spray voltage: 5500 V; nebulizer gas (gas 1): 20 psi; turbo gas (gas 2): 25 psi; temperature of the heated nebulizer: 400°C; curtain gas: 40 psi; collision gas: 6 psi. Mass spectra were acquired by SRM with precursor/predominant product ion transitions for each analyte. The mass spectral Q1→Q3 transitions monitored for AZ-853, AZ-861 and for IS (nebivolol), were m/z 453.9→235.1; 504.3→285.1 and 406.2→151.1, respectively. The peak widths of precursor and product ions were set to 0.7 full width half-height. Quantification was done via peak area ratio.
Pharmacokinetic parameters were calculated by a non-compartmental approach from the average concentration values, using Phoenix WinNonlin software (Certara, Princeton, NJ 08540 USA). First order elimination rate constant (λz) was calculated by linear regression of time versus log concentration. Next, the area under the mean serum and tissue concentration versus time curve (AUC0→t) was estimated using the log-linear trapezoidal rule (1), where Ci is the plasma concentration measured at t1.
AUC0→t=∑i=1n((Ci+Ci+1)/2)∙(ti+1−ti). (1)
Area under the first-moment curve (AUMC0→t) was estimated by calculation of the total area under the first-moment curve using the Eq (2), where Ci is the plasma concentration measured at t1. AUMC0→t=∑i=1n((ti∙Ci+ti+1∙Ci+1)/2)∙(ti+1−ti). […]

[1] = hippocampus, 1.25 mg/kg, read-out: Concentration, hippocampus (individual animals)
[2] = hippocampus, 1.25 mg/kg, read-out: Concentration, hippocampus (Mean)
[3] = plasma, 1.25 mg/kg, read-out: Concentration, plasma (Mean)
[4] = plasma, 1.25 mg/kg, read-out: Concentration, plasma (individual animals)
[5] = striatum, 1.25 mg/kg, read-out: Concentration, striatum (Mean)
[6] = striatum, 1.25 mg/kg, read-out: Concentration, striatum (individual animals)

concentration at 5 min [1]: 289 ng/mL | concentration at 15 min [2]: 307 ng/mL | concentration at 15 min [1]: 264 ng/mL | concentration at 30 min [2]: 253 ng/mL | concentration at 30 min [1]: 245 ng/mL | concentration at 60 min [2]: 96.9 ng/mL | concentration at 60 min [1]: 101 ng/mL | concentration at 120 min [2]: 54.3 ng/mL | concentration at 120 min [1]: 60.2 ng/mL | concentration at 240 min [2]: 19.6 ng/mL | concentration at 240 min [1]: 18.2 ng/mL | concentration at 480 min [2]: 15.8 ng/mL | concentration at 480 min [1]: 15.8 ng/mL | Cmax (hippocampus, 1.25 mg/kg, read-out: Cmax, hippocampus): 308 ng/g | Tmax (hippocampus, 1.25 mg/kg, read-out: tmax, hippocampus (converted)): 15 min | CL/F (plasma): 590 mL/min/kg | AUC(0-t) (plasma, read-out: AUC0→t, plasma (converted)): 34.5 ng·h/mL | MRT (plasma, read-out: MRT, plasma (converted)): 52.3 min | concentration at 5 min [3]: 59.8 ng/mL | concentration at 15 min [3]: 36.3 ng/mL | concentration at 15 min [4]: 26.4 ng/mL | concentration at 30 min [3]: 24.8 ng/mL | concentration at 60 min [3]: 5.84 ng/mL | concentration at 60 min [4]: 7.37 ng/mL | concentration at 120 min [3]: 2.58 ng/mL | concentration at 120 min [4]: 1.84 ng/mL | concentration at 240 min [3]: 0.56 ng/mL | concentration at 480 min [3]: 0.27 ng/mL | concentration at 480 min [4]: 0.25 ng/mL | Vd/F (plasma, 1.25 mg/kg, plasma, read-out: Vd/F): > 84 L/kg | Cmax (plasma, 1.25 mg/kg, read-out: Cmax, plasma): 59.6 ng/mL | Tmax (plasma, 1.25 mg/kg, read-out: tmax, plasma): ≤ 5 min | Kp (striatum, ratio of AUC values, read-out: Brain structure-to-plasma concentration ratio, striatum (S/P)): 8.97 | AUC(0-t) (striatum, read-out: AUC0→t, striatum (converted)): 309 ng·h/mL | MRT (striatum, read-out: MRT, striatum (converted)): 56.9 min | concentration at 5 min [5]: 181 ng/mL | concentration at 5 min [6]: 190 ng/mL | concentration at 15 min [5]: 334 ng/mL | concentration at 15 min [6]: 377 ng/mL | concentration at 30 min [5]: 305 ng/mL | concentration at 30 min [6]: 341 ng/mL | concentration at 60 min [5]: 58.1 ng/mL | concentration at 60 min [6]: 61.6 ng/mL | concentration at 120 min [5]: 25.6 ng/mL | concentration at 120 min [6]: 28.4 ng/mL | concentration at 240 min [5]: 5.89 ng/mL | concentration at 240 min [6]: 6.95 ng/mL | concentration at 480 min [5]: 1.86 ng/mL | concentration at 480 min [6]: 1.65 ng/mL | Cmax (striatum, 1.25 mg/kg, read-out: Cmax, striatum): 333 ng/g | Tmax (striatum, 1.25 mg/kg, read-out: tmax, striatum (converted)): 15 min
Compound: Cn1c(=O)c2c(nc3n(CCCCN4CCN(c5cccc(C(F)(F)F)c5)CC4)ccn23)n(C)c1=O [AZ-861, 1,3-dimethyl-8-(4-(4-(3-(trifluoromethyl)phenyl)piperazin-1-yl)butyl)-1H-imidazo[2,1-f]purine-2,4(3H,8H)-dione]
